# Tested on: MV-4-11 cells
# Test: Gene expression microarray analysis (Affymetrix PrimeView) and GSEA
# Type: cell-based, human
# Design: RFU PODN (11730768_x_at) / Fold change /veh PODN (11730768_x_at) / RFU LINC00158 (11744669_a_at) / Fold change /veh LINC00158 (11744669_a_at) / RFU DUSP10 (11751237_a_at) / Fold change /veh DUSP10 (11751237_a_at) / RFU ID3 (11757404_x_at) / Fold change /veh ID3 (11757404_x_at) / RFU PLEKHG5 (11737974_s_at) / Fold change /veh PLEKHG5 (11737974_s_at) / RFU LRRC4B (11730491_at) / Fold change /veh LRRC4B (11730491_at) / RFU GIMAP4 (11747438_a_at) / Fold change /veh GIMAP4 (11747438_a_at) / RFU KRT8 (11758183_x_at) / Fold change /veh KRT8 (11758183_x_at) / RFU CNN1 (11734310_a_at) / Fold change /veh CNN1 (11734310_a_at) / RFU VPS37D (11726825_at) / Fold change /veh VPS37D (11726825_at) / RFU C10orf10 (11716522_x_at) / Fold change /veh C10orf10 (11716522_x_at) / RFU KIR2DL2 /// KIR2DL4 /// KIR2DL5A /// KIR2DL5B /// KIR2DS1 /// KIR2DS2 /// KIR2DS3 /// KIR2DS4 /// KIR3DL3 /// KIR3DL3 /// KIR3DS1 (11738374_at) / Fold change /veh KIR2DL2 /// KIR2DL4 /// KIR2DL5A /// KIR2DL5B /// KIR2DS1 /// KIR2DS2 /// KIR2DS3 /// KIR2DS4 /// KIR3DL3 /// KIR3DL3 /// KIR3DS1 (11738374_at) / RFU C1QL1 (11718748_at) / Fold change /veh C1QL1 (11718748_at) / RFU TMPRSS4 (11747572_a_at) / Fold change /veh TMPRSS4 (11747572_a_at) / RFU HAMP (11756126_x_at) / Fold change /veh HAMP (11756126_x_at) / RFU RNFT2 (11725882_a_at) / Fold change /veh RNFT2 (11725882_a_at) / RFU NR4A2 (11747474_a_at) / Fold change /veh NR4A2 (11747474_a_at) / RFU ABCC12 (11746883_a_at) / Fold change /veh ABCC12 (11746883_a_at) / RFU TMEM136 (11760407_x_at) / Fold change /veh TMEM136 (11760407_x_at) / RFU CLDN22 /// WWC2 (11732394_at) / Fold change /veh CLDN22 /// WWC2 (11732394_at) / RFU HLA-DPB1 (11760878_x_at) / Fold change /veh HLA-DPB1 (11760878_x_at) / RFU SPINT1 (11716480_a_at) / Fold change /veh SPINT1 (11716480_a_at) / RFU GAP43 (11754022_s_at) / Fold change /veh GAP43 (11754022_s_at) / RFU A4GNT (11735810_at) / Fold change /veh A4GNT (11735810_at) / RFU PRB3 (11715151_x_at) / Fold change /veh PRB3 (11715151_x_at) / RFU TUBB4B (11761932_at) / Fold change /veh TUBB4B (11761932_at) / RFU CAPN14 (11732068_a_at) / Fold change /veh CAPN14 (11732068_a_at) / RFU TMCC2 (11721928_a_at) / Fold change /veh TMCC2 (11721928_a_at) / RFU IRGQ (11745062_a_at) / Fold change /veh IRGQ (11745062_a_at) / RFU FAM174B (11720279_a_at) / Fold change /veh FAM174B (11720279_a_at) / RFU TMPRSS4 (11748680_a_at) / Fold change /veh TMPRSS4 (11748680_a_at) / RFU FAM212B (11763350_a_at) / Fold change /veh FAM212B (11763350_a_at) / RFU PLEKHG5 (11743358_a_at) / Fold change /veh PLEKHG5 (11743358_a_at) / RFU ZSCAN30 (11745921_a_at) / Fold change /veh ZSCAN30 (11745921_a_at) / RFU CMKLR1 (11741424_a_at) / Fold change /veh CMKLR1 (11741424_a_at) / RFU LOC101060620 /// MAPK8IP1 (11723275_at) / Fold change /veh LOC101060620 /// MAPK8IP1 (11723275_at) / RFU SPTSSB (11747773_x_at) / Fold change /veh SPTSSB (11747773_x_at) / RFU PRSS12 (11739890_at) / Fold change /veh PRSS12 (11739890_at) / RFU BIN1 (11741810_x_at) / Fold change /veh BIN1 (11741810_x_at) / RFU WNT11 (11732464_a_at) / Fold change /veh WNT11 (11732464_a_at) / RFU C10orf10 (11716521_a_at) / Fold change /veh C10orf10 (11716521_a_at) / RFU C5orf56 (11738089_at) / Fold change /veh C5orf56 (11738089_at) / RFU CYB561 (11721691_x_at) / Fold change /veh CYB561 (11721691_x_at) / RFU ANKRD19P (11752326_a_at) / Fold change /veh ANKRD19P (11752326_a_at) / RFU OR2T12 /// OR2T33 /// OR2T8 (11738714_s_at) / Fold change /veh OR2T12 /// OR2T33 /// OR2T8 (11738714_s_at) / RFU VCAN (11748164_a_at) / Fold change /veh VCAN (11748164_a_at) / RFU JSRP1 (11732532_at) / Fold change /veh JSRP1 (11732532_at) / RFU KRTAP10-11 (11738290_x_at) / Fold change /veh KRTAP10-11 (11738290_x_at) / RFU MYO3A (11730013_a_at) / Fold change /veh MYO3A (11730013_a_at) / RFU EBF3 (11725865_a_at) / Fold change /veh EBF3 (11725865_a_at) / RFU CAMK2N1 (11719241_x_at) / Fold change /veh CAMK2N1 (11719241_x_at) / RFU C5orf56 (11738088_a_at) / Fold change /veh C5orf56 (11738088_a_at) / RFU OLFML3 (11715873_a_at) / Fold change /veh OLFML3 (11715873_a_at) / RFU LOC100653217 /// NTM (11731650_a_at) / Fold change /veh LOC100653217 /// NTM (11731650_a_at) / RFU MAPK11 (11762145_a_at) / Fold change /veh MAPK11 (11762145_a_at) / RFU FIZ1 (11724087_x_at) / Fold change /veh FIZ1 (11724087_x_at) / RFU OASL (11726364_x_at) / Fold change /veh OASL (11726364_x_at) / RFU SOX15 (11748057_x_at) / Fold change /veh SOX15 (11748057_x_at) / RFU CD79A (11719716_a_at) / Fold change /veh CD79A (11719716_a_at) / RFU HIST1H1D (11736915_at) / Fold change /veh HIST1H1D (11736915_at) / RFU CASKIN2 (11723855_a_at) / Fold change /veh CASKIN2 (11723855_a_at) / RFU LOC730098 (11760151_x_at) / Fold change /veh LOC730098 (11760151_x_at) / RFU OR4N2 (11742367_at) / Fold change /veh OR4N2 (11742367_at) / RFU PRRT2 (11749266_a_at) / Fold change /veh PRRT2 (11749266_a_at) / RFU SNX32 (11753110_a_at) / Fold change /veh SNX32 (11753110_a_at) / RFU CDHR5 (11726645_a_at) / Fold change /veh CDHR5 (11726645_a_at) / RFU RCAN1 (11760418_a_at) / Fold change /veh RCAN1 (11760418_a_at) / RFU FAM167A (11723789_a_at) / Fold change /veh FAM167A (11723789_a_at) / RFU FAM26E (11764081_at) / Fold change /veh FAM26E (11764081_at) / RFU ISYNA1 (11749810_s_at) / Fold change /veh ISYNA1 (11749810_s_at) / RFU ACY1 (11761880_at) / Fold change /veh ACY1 (11761880_at) / RFU 11764098_at / Fold change /veh 11764098_at / RFU SAMD14 (11745864_x_at) / Fold change /veh SAMD14 (11745864_x_at) / RFU NPB (11741838_a_at) / Fold change /veh NPB (11741838_a_at) / RFU TMPRSS6 (11731388_a_at) / Fold change /veh TMPRSS6 (11731388_a_at) / RFU KRTAP10-2 (11738614_at) / Fold change /veh KRTAP10-2 (11738614_at) / RFU ARHGAP8 /// PRR5-ARHGAP8 (11727945_x_at) / Fold change /veh ARHGAP8 /// PRR5-ARHGAP8 (11727945_x_at) / RFU KRTAP5-7 /// NADSYN1 (11734609_at) / Fold change /veh KRTAP5-7 /// NADSYN1 (11734609_at) / RFU RASL12 (11751679_a_at) / Fold change /veh RASL12 (11751679_a_at) / RFU CDKN2B (11736163_a_at) / Fold change /veh CDKN2B (11736163_a_at) / RFU PRF1 (11729649_at) / Fold change /veh PRF1 (11729649_at) / RFU, ZNF638 /// ZNF638-IT1 / Fold change vs veh, ZNF638 /// ZNF638-IT1 / RFU, PANK3 / Fold change vs veh, PANK3 / RFU, SH3YL1 / Fold change vs veh, SH3YL1 / RFU, ZEB2 / Fold change vs veh, ZEB2 / RFU, NRIP1 / Fold change vs veh, NRIP1 / RFU, PTTG1IP / Fold change vs veh, PTTG1IP / RFU, CAPN2 / Fold change vs veh, CAPN2 / RFU, MED14 / Fold change vs veh, MED14 / RFU, SNORA58 / Fold change vs veh, SNORA58 / RFU, C1orf63 / Fold change vs veh, C1orf63 / RFU, LRRFIP1 / Fold change vs veh, LRRFIP1 / RFU, NDUFAF7 / Fold change vs veh, NDUFAF7 / RFU, SLC12A2 / Fold change vs veh, SLC12A2 / RFU, IBTK / Fold change vs veh, IBTK / RFU, ESF1 / Fold change vs veh, ESF1 / Fold change vs veh, TMEM50B / RFU, TAOK1 / Fold change vs veh, TAOK1 / RFU, ACBD3 / Fold change vs veh, ACBD3 / RFU, TMA16 / Fold change vs veh, TMA16 / RFU, RWDD3 / Fold change vs veh, RWDD3 / RFU, BCAT1 / Fold change vs veh, BCAT1 / RFU, EDEM3 / Fold change vs veh, EDEM3 / RFU, TMEM33 / Fold change vs veh, TMEM33 / RFU, WDR75 / Fold change vs veh, WDR75 / RFU, AHCTF1 / Fold change vs veh, AHCTF1 / RFU, TFRC / Fold change vs veh, TFRC / RFU, ZDHHC17 / Fold change vs veh, ZDHHC17 / RFU, NOM1 / Fold change vs veh, NOM1 / RFU, ARL8B / Fold change vs veh, ARL8B / RFU, ZBTB11 / Fold change vs veh, ZBTB11 / RFU, TAMM41 / Fold change vs veh, TAMM41 / RFU, KIAA1704 /// LOC100996395 / Fold change vs veh, KIAA1704 /// LOC100996395 / RFU, ING1 / Fold change vs veh, ING1 / RFU, TRMT61B / Fold change vs veh, TRMT61B / RFU, FUBP3 / Fold change vs veh, FUBP3 / RFU, TP53 / Fold change vs veh, TP53 / RFU, TNKS2 / Fold change vs veh, TNKS2 / RFU, ZFP14 / Fold change vs veh, ZFP14 / RFU, ACTR2 / Fold change vs veh, ACTR2 / RFU, PPP3R1 / Fold change vs veh, PPP3R1 / RFU, PIK3R1 / Fold change vs veh, PIK3R1 / RFU, HNRNPA1 / Fold change vs veh, HNRNPA1 / RFU, RNF170 / Fold change vs veh, RNF170 / RFU, ZNF28 / Fold change vs veh, ZNF28 / RFU, RNGTT / Fold change vs veh, RNGTT / RFU, OGT / Fold change vs veh, OGT / RFU, BRD1 / Fold change vs veh, BRD1 / RFU, MARS / Fold change vs veh, MARS / RFU, ZNF655 / Fold change vs veh, ZNF655 / RFU, FAHD1 / Fold change vs veh, FAHD1 / RFU, BDP1 / Fold change vs veh, BDP1 / RFU, LRRCC1 / Fold change vs veh, LRRCC1 / RFU, ARID1A / Fold change vs veh, ARID1A / RFU, ZNF146 / Fold change vs veh, ZNF146 / RFU, ZNF330 / Fold change vs veh, ZNF330 / RFU, GPN3 / Fold change vs veh, GPN3 / RFU, C9orf123 / Fold change vs veh, C9orf123 / RFU, N4BP2L2 / Fold change vs veh, N4BP2L2 / RFU, ARFIP1 / Fold change vs veh, ARFIP1 / RFU, FAM179B / Fold change vs veh, FAM179B / RFU, BCL10 / Fold change vs veh, BCL10 / RFU, UHRF1BP1L / Fold change vs veh, UHRF1BP1L / RFU, BET1 / Fold change vs veh, BET1 / RFU, CNOT2 / Fold change vs veh, CNOT2 / RFU, ZNF268 / Fold change vs veh, ZNF268 / Fold change vs veh, ZNF507 / RFU, DGCR2 / Fold change vs veh, DGCR2 / RFU, WDSUB1 / Fold change vs veh, WDSUB1 / Fold change vs veh, HSP90B1 /// MIR3652 / RFU, ADSS / Fold change vs veh, ADSS / RFU, GK / Fold change vs veh, GK / RFU, ZNF148 / Fold change vs veh, ZNF148 / RFU, TAF9 / Fold change vs veh, TAF9 / RFU, SLC1A5 / Fold change vs veh, SLC1A5 / RFU, SLMO2 / Fold change vs veh, SLMO2 / RFU, ABCC4 / Fold change vs veh, ABCC4 / RFU, LOC101060439 /// RAP1B / Fold change vs veh, LOC101060439 /// RAP1B / RFU, RFX7 / Fold change vs veh, RFX7 / RFU, GTPBP10 / Fold change vs veh, GTPBP10 / RFU, CNEP1R1 / Fold change vs veh, CNEP1R1 / RFU, BIVM-ERCC5 /// ERCC5 / Fold change vs veh, BIVM-ERCC5 /// ERCC5 / RFU, ILF3 / Fold change vs veh, ILF3 / RFU 11762660_at / Fold change /veh 11762660_at / RFU VCAN (11757783_s_at) / Fold change /veh VCAN (11757783_s_at) / RFU DDX43 (11728927_at) / Fold change /veh DDX43 (11728927_at) / RFU KRT8 (11758188_x_at) / Fold change /veh KRT8 (11758188_x_at) / RFU NKD1 (11759106_at) / Fold change /veh NKD1 (11759106_at) / RFU SRD5A1 (11742802_a_at) / Fold change /veh SRD5A1 (11742802_a_at) / RFU TPSAB1 /// TPSB2 (11721975_s_at) / Fold change /veh TPSAB1 /// TPSB2 (11721975_s_at) / RFU GSTM3 (11746129_a_at) / Fold change /veh GSTM3 (11746129_a_at) / RFU IL23R (11737362_x_at) / Fold change /veh IL23R (11737362_x_at) / RFU TMEM51 (11727254_a_at) / Fold change /veh TMEM51 (11727254_a_at) / RFU PIWIL2 (11732686_x_at) / Fold change /veh PIWIL2 (11732686_x_at) / RFU ORM1 (11744905_x_at) / Fold change /veh ORM1 (11744905_x_at) / RFU CCDC152 (11743942_at) / Fold change /veh CCDC152 (11743942_at) / RFU ECM1 (11717891_a_at) / Fold change /veh ECM1 (11717891_a_at) / RFU IL23R (11748794_a_at) / Fold change /veh IL23R (11748794_a_at) / RFU TNFAIP8L3 (11732012_x_at) / Fold change /veh TNFAIP8L3 (11732012_x_at) / RFU MBOAT4 (11741988_at) / Fold change /veh MBOAT4 (11741988_at) / RFU 11764193_at / Fold change /veh 11764193_at / RFU TMEM53 (11763286_at) / Fold change /veh TMEM53 (11763286_at) / RFU MAGEB2 (11727129_at) / Fold change /veh MAGEB2 (11727129_at) / RFU TMEM200A (11744735_a_at) / Fold change /veh TMEM200A (11744735_a_at) / RFU CCDC152 (11751479_a_at) / Fold change /veh CCDC152 (11751479_a_at) / RFU FAM211A (11726209_a_at) / Fold change /veh FAM211A (11726209_a_at) / RFU RGS16 (11746705_a_at) / Fold change /veh RGS16 (11746705_a_at) / RFU VCAN (11755009_s_at) / Fold change /veh VCAN (11755009_s_at) / RFU RHOB (11743442_s_at) / Fold change /veh RHOB (11743442_s_at) / RFU RGS16 (11720943_a_at) / Fold change /veh RGS16 (11720943_a_at) / RFU RGS16 (11720944_at) / Fold change /veh RGS16 (11720944_at) / RFU, VPS4B / Fold change vs veh, VPS4B / RFU, CREB1 / Fold change vs veh, CREB1 / RFU, DNAJC13 / Fold change vs veh, DNAJC13 / RFU, GNAQ / Fold change vs veh, GNAQ / RFU, CDK5R1 / Fold change vs veh, CDK5R1 / RFU, ZRANB3 / Fold change vs veh, ZRANB3 / RFU, CUL4A / Fold change vs veh, CUL4A / RFU, CCNY / Fold change vs veh, CCNY / RFU, UFL1 / Fold change vs veh, UFL1 / RFU, COG3 / Fold change vs veh, COG3 / RFU, DIAPH2 / Fold change vs veh, DIAPH2 / RFU, SKA2 / Fold change vs veh, SKA2 / RFU, AFF3 / Fold change vs veh, AFF3 / RFU, LMF1 / Fold change vs veh, LMF1 / RFU, IPO11 / Fold change vs veh, IPO11 / RFU, DFFB / Fold change vs veh, DFFB / RFU, FOXP1 / Fold change vs veh, FOXP1 / RFU, CARD8 / Fold change vs veh, CARD8 / RFU, STRN3 / Fold change vs veh, STRN3 / RFU, ADK / Fold change vs veh, ADK / RFU, RASSF2 / Fold change vs veh, RASSF2 / RFU, WIPF1 / Fold change vs veh, WIPF1 / RFU, LARP1B / Fold change vs veh, LARP1B / RFU, RASA1 / Fold change vs veh, RASA1 / RFU, RB1 / Fold change vs veh, RB1 / RFU, PPFIA1 / Fold change vs veh, PPFIA1 / RFU, MAT2A / Fold change vs veh, MAT2A / RFU, CCT5 / Fold change vs veh, CCT5 / RFU, WDR92 / Fold change vs veh, WDR92 / RFU, CUX1 / Fold change vs veh, CUX1 / RFU, TTC7A / Fold change vs veh, TTC7A / RFU, TMEM135 / Fold change vs veh, TMEM135 / RFU, DEPTOR / Fold change vs veh, DEPTOR / RFU, CPM / Fold change vs veh, CPM / RFU, DNAJB6 / Fold change vs veh, DNAJB6 / RFU, CACNA2D3 / Fold change vs veh, CACNA2D3 / RFU, DTX4 / Fold change vs veh, DTX4 / RFU, TFCP2 / Fold change vs veh, TFCP2 / RFU, GMCL1 /// GMCL1P1 / Fold change vs veh, GMCL1 /// GMCL1P1 / RFU, AEBP2 / Fold change vs veh, AEBP2 / RFU, SNHG1 /// SNORD22 /// SNORD25 /// SNORD26 /// SNORD27 /// SNORD28 /// SNORD29 /// SNORD31 / Fold change vs veh, SNHG1 /// SNORD22 /// SNORD25 /// SNORD26 /// SNORD27 /// SNORD28 /// SNORD29 /// SNORD31 / Fold change (Aza/veh), C12orf56 (ProbeSet 11735607_a_at) / Fold change (ACY-1035/veh), C12orf56 (ProbeSet 11735607_a_at) / Fold change (Aza/veh), FGFR1OP (ProbeSet 11751329_s_at) / Fold change (ACY-1035/veh), FGFR1OP (ProbeSet 11751329_s_at) / Fold change (Aza/veh), VPS36 (ProbeSet 11739960_a_at) / Fold change (ACY-1035/veh), VPS36 (ProbeSet 11739960_a_at) / RFU SYPL1 (11715823_x_at) / Fold change /veh SYPL1 (11715823_x_at) / RFU IGFBP7 (11715501_s_at) / Fold change /veh IGFBP7 (11715501_s_at) / RFU REEP3 (11722064_at) / Fold change /veh REEP3 (11722064_at) / RFU IGLL1 (11728026_x_at) / Fold change /veh IGLL1 (11728026_x_at): dose or concentration left out as unconfirmed
# Details: MV-4-11 cells, 48 hours
smiles,measurement,value
Nc1ncn([C@@H]2O[C@H](CO)[C@@H](O)[C@H]2O)c(=O)n1 [azacitidine],RFU 11764193_at,40.50 RFU

# From paper PMC5218480 (PLoS ONE, 2017)
